pIC50: −log10 of the molar value.

Results on 20 compounds are retold here after patent US20240409530A1, “Disubstituted Pyrimidine Compounds for Ketohexokinase Inhibition” (Centennial Therapeutics, LLC, priority 2023, published 2024).

Common to all, as to experiment: KHK inhibition assay, recombinant isozyme (coupled pyruvate kinase/LDH, NADH absorbance 340 nm)
Holding throughout (assay type): biochemical
Holding throughout (conditions): recombinant isozyme 6 nM, fructose 2 mM, ATP 0.1 mM

In one test the target is Human recombinant KHK-A (Homo sapiens (Human), UniProt P50053). As for the experimental part: (§1) Determination of Human and Rat recombinant KHK-A and KHK-C isozyme IC50 Values
(§2) An assay reagent cocktail was prepared by combining NADH, water, TEA, KCl, MgCl2, PEP, ATP, DTT, coupling enzymes (pyruvate kinase and lactate dehydrogenase, LDH) to final concentrations as shown in Table B.
(§3) To this was added the relevant KHK isozyme to a final concentration of 6 nM. Aliquots of each inhibitor compound were diluted via 5-fold serial dilutions to produce final concentrations ranging from 1000 nM to 0.064 nM. The inhibitor aliquots were added to the assay reagent cocktail containing KHK with fructose (at a concentration of 2 mM) in a 96-well plate. The absorbance at 340 nm was measured via spectrophotometry and inhibition was analyzed using non-linear regression.

In another test the target is Human recombinant KHK-C (Homo sapiens (Human), UniProt P50053). As for the experimental part: as §1, §2, §3
For a further test, the target named is Rat recombinant KHK-A (Rattus norvegicus (Rat), UniProt Q02974). As for the experimental part: as §1, §2, §3
Another test addresses Rat recombinant KHK-C (Rattus norvegicus (Rat), UniProt Q02974). As for the experimental part:
as §1, §2, §3

Sequence of Human recombinant KHK-C (P50053 whole entry): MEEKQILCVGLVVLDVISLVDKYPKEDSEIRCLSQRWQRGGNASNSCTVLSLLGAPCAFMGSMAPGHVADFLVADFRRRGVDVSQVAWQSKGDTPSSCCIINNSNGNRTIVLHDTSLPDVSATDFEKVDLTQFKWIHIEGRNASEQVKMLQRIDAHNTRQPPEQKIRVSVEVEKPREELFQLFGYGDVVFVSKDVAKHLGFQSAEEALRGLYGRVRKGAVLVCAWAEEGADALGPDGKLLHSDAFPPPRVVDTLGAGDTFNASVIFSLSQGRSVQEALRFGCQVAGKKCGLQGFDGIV
Sequence of Human recombinant KHK-A (P50053 other isoform, or with tags, fused parts or gaps): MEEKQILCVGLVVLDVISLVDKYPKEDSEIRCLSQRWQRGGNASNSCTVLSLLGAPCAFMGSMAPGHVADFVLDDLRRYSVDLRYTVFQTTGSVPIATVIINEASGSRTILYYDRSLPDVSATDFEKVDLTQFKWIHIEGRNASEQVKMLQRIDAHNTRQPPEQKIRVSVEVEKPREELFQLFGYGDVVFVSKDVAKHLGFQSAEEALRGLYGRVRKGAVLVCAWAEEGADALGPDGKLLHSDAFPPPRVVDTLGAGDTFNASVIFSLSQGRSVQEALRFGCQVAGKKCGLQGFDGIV
Sequence of Rat recombinant KHK-C (Q02974 whole entry): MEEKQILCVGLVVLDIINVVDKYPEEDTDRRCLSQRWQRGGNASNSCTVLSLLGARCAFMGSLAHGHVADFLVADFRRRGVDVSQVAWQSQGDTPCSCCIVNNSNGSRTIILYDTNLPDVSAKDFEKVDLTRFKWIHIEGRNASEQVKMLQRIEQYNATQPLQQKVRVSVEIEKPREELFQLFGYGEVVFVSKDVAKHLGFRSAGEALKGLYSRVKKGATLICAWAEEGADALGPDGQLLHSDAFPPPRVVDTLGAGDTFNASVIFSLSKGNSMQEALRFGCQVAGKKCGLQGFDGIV
Sequence of Rat recombinant KHK-A (Q02974 other isoform, or with tags, fused parts or gaps): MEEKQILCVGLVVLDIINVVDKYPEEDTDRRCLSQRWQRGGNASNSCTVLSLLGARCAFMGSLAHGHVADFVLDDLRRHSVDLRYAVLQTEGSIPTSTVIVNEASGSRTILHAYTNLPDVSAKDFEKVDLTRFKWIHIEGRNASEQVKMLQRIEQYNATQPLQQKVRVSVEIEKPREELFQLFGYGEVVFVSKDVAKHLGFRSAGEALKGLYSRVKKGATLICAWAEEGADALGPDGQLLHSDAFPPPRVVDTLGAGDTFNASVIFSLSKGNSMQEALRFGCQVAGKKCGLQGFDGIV

A word on the pIC50: it is the negative decadic logarithm of the IC50, by convention in mol/L. For `CN1CC(n2cc(-c3cc(C(F)(F)F)nc(N4C[C@@H](O)[C@@H]4C(F)(F)F)n3)cn2)C1` (racemic) [Compound A25, (2R,3R)-1-{4-[1-(1-methyl-3-azetidinyl)-4-pyrazolyl]-6-(trifluoromethyl)-2-pyrimidinyl}-2-(trifluoromethyl)-3-azetidinol], the pIC50 at Human recombinant KHK-A was 8.66; on Human recombinant KHK-C, 8.28; at Rat recombinant KHK-A, 8.24; at Rat recombinant KHK-C, 7.82. Take `O[C@@H]1CN(c2nc(-c3cnn(C4CNC4)c3)cc(C(F)(F)F)n2)[C@H]1C(F)(F)F` (racemic) [Compound A31, (2R,3R)-1-{4-[1-(3-azetidinyl)-4-pyrazolyl]-6-(trifluoromethyl)-2-pyrimidinyl}-2-(trifluoromethyl)-3-azetidinol]: on Human recombinant KHK-C, the pIC50 is 7.77.

With `C[C@H]1CCN1c1nc(-c2cnn(CC(=O)N3CCNCC3)c2)c(Cl)c(C(F)(F)F)n1` [Compound A4, 2-(4-{2-[(S)-2-methyl-1-azetidinyl]-5-chloro-6-(trifluoromethyl)-4-pyrimidinyl}-1-pyrazolyl)-1-(1-piperazinyl)-1-ethanone], the pIC50 at Human recombinant KHK-A is 8.74; on Human recombinant KHK-C it was 8.23; on Rat recombinant KHK-A it was 8.89; at Rat recombinant KHK-C, 8.31. `O=C(Cn1cc(-c2nc(N3CC[C@@H]3C(F)F)nc(C(F)F)c2C2CC2)cn1)N1CCNCC1` [Compound A13, 2-(4-{2-[(R)-2-(difluoromethyl)-1-azetidinyl]-5-cyclopropyl-6-(difluoromethyl)-4-pyrimidinyl}-1-pyrazolyl)-1-(1-piperazinyl)-1-ethanone]: the negative logarithm of the IC50 (pIC50) on Human recombinant KHK-C was 7.39. On to `O=C(Cn1cc(-c2cc(C(F)F)nc(N3CC[C@@H]3C(F)F)n2)cn1)N1CCNCC1` [Compound A14, 2-(4-{2-[(R)-2-(difluoromethyl)-1-azetidinyl]-6-(difluoromethyl)-4-pyrimidinyl}-1-pyrazolyl)-1-(1-piperazinyl)-1-ethanone], for which the pIC50 on Human recombinant KHK-C is 6.50. Same read-out and setting: under `COc1c(-c2cnn(CC(=O)N3CCNCC3)c2)nc(N2CC[C@@H]2C(F)(F)F)nc1C(F)F` [Compound A15, 2-(4-{2-[(R)-2-(trifluoromethyl)-1-azetidinyl]-6-(difluoromethyl)-5-methoxy-4-pyrimidinyl}-1-pyrazolyl)-1-(1-piperazinyl)-1-ethanone] stands 7.49; under `O=C(Cn1cc(-c2nc(N3CC[C@@H]3C(F)F)nc(C(F)(F)F)c2F)cn1)N1CCNCC1` [Compound A16, 2-(4-{2-[(R)-2-(difluoromethyl)-1-azetidinyl]-5-fluoro-6-(trifluoromethyl)-4-pyrimidinyl}-1-pyrazolyl)-1-(1-piperazinyl)-1-ethanone], 7.32; under `O=C(Cn1cc(-c2nc(N3CC[C@@H]3C(F)F)nc(C(F)(F)F)c2C2CC2)cn1)N1CCNCC1` [Compound A17, 2-(4-{2-[(R)-2-(difluoromethyl)-1-azetidinyl]-5-cyclopropyl-6-(trifluoromethyl)-4-pyrimidinyl}-1-pyrazolyl)-1-(1-piperazinyl)-1-ethanone], 7.13. On the same count and under the same terms, in the case of `O=C(Cn1cc(-c2cc(C(F)F)nc(N3CC[C@@H]3C(F)(F)F)n2)cn1)N1CCNCC1` [Compound A20, 2-(4-{2-[(R)-2-(trifluoromethyl)-1-azetidinyl]-6-(difluoromethyl)-4-pyrimidinyl}-1-pyrazolyl)-1-(1-piperazinyl)-1-ethanone] it was 6.88; in that of `C[C@H]1CCN1c1nc(-c2cnn(CC(=O)N3CCNCC3)c2)c(F)c(C(F)F)n1` [Compound A22, 2-(4-{2-[(S)-2-methyl-1-azetidinyl]-6-(difluoromethyl)-5-fluoro-4-pyrimidinyl}-1-pyrazolyl)-1-(1-piperazinyl)-1-ethanone], 7.18; in that of `COc1c(-c2cnn(CC(=O)N3CCNCC3)c2)nc(N2CC[C@@H]2C)nc1C(F)F` [Compound A23, 2-(4-{2-[(S)-2-methyl-1-azetidinyl]-6-(difluoromethyl)-5-methoxy-4-pyrimidinyl}-1-pyrazolyl)-1-(1-piperazinyl)-1-ethanone], 7.26. Same read-out and setting: under `O=C(Cn1cc(-c2nc(N3CC[C@@H]3C(F)(F)F)nc(C(F)(F)F)c2Cl)cn1)N1CCNCC1` [Compound A29, 2-(4-{2-[(R)-2-(trifluoromethyl)-1-azetidinyl]-5-chloro-6-(trifluoromethyl)-4-pyrimidinyl}-1-pyrazolyl)-1-(1-piperazinyl)-1-ethanone] stands 8.30; under `C[C@H]1CCN1c1nc(-c2cnn(CC(=O)N3CCNCC3)c2)c(C2CC2)c(C(F)(F)F)n1` [Compound A30, 2-(4-{2-[(S)-2-methyl-1-azetidinyl]-5-cyclopropyl-6-(trifluoromethyl)-4-pyrimidinyl}-1-pyrazolyl)-1-(1-piperazinyl)-1-ethanone], 7.38; under `C[C@H]1[C@H](O)CN1c1nc(-c2cnn(C3CN(C)C3)c2)c(C2CC2)c(C(F)(F)F)n1` [Compound A34, (2S,3R)-1-{5-cyclopropyl-4-[1-(1-methyl-3-azetidinyl)-4-pyrazolyl]-6-(trifluoromethyl)-2-pyrimidinyl}-2-methyl-3-azetidinol], 7.60. As to `COc1c(-c2cnn(CC(=O)N3CCNCC3)c2)nc(N2CC[C@@H]2C(F)F)nc1C(F)(F)F` [Compound A36, 2-(4-{2-[(R)-2-(difluoromethyl)-1-azetidinyl]-5-methoxy-6-(trifluoromethyl)-4-pyrimidinyl}-1-pyrazolyl)-1-(1-piperazinyl)-1-ethanone], the pIC50 on Human recombinant KHK-C is 7.44. Still for that read-out and setting: under `O=C(Cn1cc(-c2nc(N3CC[C@@H]3C(F)F)nc(C(F)F)c2Cl)cn1)N1CCNCC1` [Compound A37, 2-(4-{2-[(R)-2-(difluoromethyl)-1-azetidinyl]-5-chloro-6-(difluoromethyl)-4-pyrimidinyl}-1-pyrazolyl)-1-(1-piperazinyl)-1-ethanone] stands 7.92; under `O=C(Cn1cc(-c2nc(N3CC[C@@H]3C(F)F)nc(C(F)F)c2F)cn1)N1CCNCC1` [Compound A39, 2-(4-{2-[(R)-2-(difluoromethyl)-1-azetidinyl]-6-(difluoromethyl)-5-fluoro-4-pyrimidinyl}-1-pyrazolyl)-1-(1-piperazinyl)-1-ethanone], 6.96; under `CCc1c(-c2cnn(CC(=O)N3CCNCC3)c2)nc(N2CC[C@@H]2C(F)F)nc1C(F)F` [Compound A40, 2-(4-{2-[(R)-2-(difluoromethyl)-1-azetidinyl]-6-(difluoromethyl)-5-ethyl-4-pyrimidinyl}-1-pyrazolyl)-1-(1-piperazinyl)-1-ethanone], 7.48. As to `CCc1c(-c2cnn(CC(=O)N3CCNCC3)c2)nc(N2CC[C@@H]2C(F)F)nc1C(F)(F)F` [Compound A41, 2-(4-{2-[(R)-2-(difluoromethyl)-1-azetidinyl]-5-ethyl-6-(trifluoromethyl)-4-pyrimidinyl}-1-pyrazolyl)-1-(1-piperazinyl)-1-ethanone], the pIC50 on Human recombinant KHK-C is 7.77. Still for that read-out and setting: in the case of `COc1c(-c2cnn(CC(=O)N3CCNCC3)c2)nc(N2CC[C@@H]2C(F)F)nc1C(F)F` [Compound A44, 2-(4-{2-[(R)-2-(difluoromethyl)-1-azetidinyl]-6-(difluoromethyl)-5-methoxy-4-pyrimidinyl}-1-pyrazolyl)-1-(1-piperazinyl)-1-ethanone] it was 7.21.
